In patent US11767520B2, “Compositions and methods for treating lung inflammation” (aTyr Pharma, Inc., priority 2017, dated 2023):

What was measured:
[1] = Body weight, BLM rat model, combination study (Example 3); type: in vivo, rat (male Sprague Dawley); details: BLM-induced rats; Nintedanib, Pirfenidone or Test Article (HRS^FC1 3 mg/kg IV weekly), alone or in combination, from Day 9
Experimental: (§1) PBS or BLM was administered under isoflurane anesthesia. Excess rats were induced with BLM and used to replace any animals with excessive body weight loss.
(§2) All treatments commenced on Day 9.
(§3) In-life, body weights were measured and clinical observations were conducted daily. On Days 8, 15 and 21, animals were removed from their home cages and placed individually into whole body plethysmography chambers. After a 20-minute acclimatization phase, respiratory parameters were recorded for 10 minutes. Pre-study and on Days 10 and Day 17, whole blood was obtained from the tail vein and processed to serum for measurement of HRS^FC1.

[2] = system: bleomycin-induced respiratory impairment; test: Respiratory measurements by whole body plethysmography, BLM rat model, combination study (Example 3, Table E6); type: in vivo, rat (male Sprague Dawley); design: Tidal Volume: unit not given here; details: for Expiratory Time / Inspiratory Time / Peak Expiratory Flow / Peak Inspiratory Flow / Tidal Volume / Respiratory Rate / Respiratory Minute Volume: mean; for Respiratory Rate: in breaths/min (unit assumed); for Respiratory Minute Volume: in mL/min (unit assumed)
Experimental: as §1, §2, §3

[3] = system: bleomycin-induced lung inflammation and fibrosis; test: Cell counts in BAL fluid, BLM mouse model (Example 1); type: in vivo, mouse (male C57Bl/6J); details: BLM-induced mice; daily PO from Day 0: dexamethasone 0.25 mg/kg, Nintedanib 60 mg/kg; vs PO vehicle
Experimental: (§4) Lung inflammation and fibrosis were induced in male C57Bl/6J mice by oropharyngeal administration of BLM. After the habituation phase mice were randomized based on body weight over the different groups. Under isoflurane anesthesia, 50 μl PBS or BLM was dripped onto the vocal cords facilitating aspiration. Mice were sacrificed at day 21 using a terminal bleed under isoflurane anesthesia.
(§5) Daily oral treatments commenced on Day 0, while daily IV treatments commenced on Day 8. Dosing was planned to continue until the day of termination (Day 21), however, due to high mortality in IV treated groups (see results), IV dosing was skipped on Day 19 and Day 20. […] Subsequently, the mice received 8% D20 (Kinemed, Emeryville) drinking water until sacrifice to maintain labeling of newly formed collagen. Body weight was monitored three times a week.
The lungs were flushed two times with 750 μl PBS, combined into one bronchoalveolar lavage (BAL) sample, and stored on ice until centrifugation. The supernatant was collected and stored frozen (<−70° C.). The erythrocytes in the cell pellet were lysed and the remaining cells were resuspended in 100 μl PBS. 20 μl was diluted in trypan blue solution and used for counting the live cells using a hemocytometer.

[4] = system: bleomycin-induced lung fibrosis; test: Histological fibrosis (modified Ashcroft) score, BLM rat model, combination study (Example 3); type: in vivo, rat (male Sprague Dawley); details: BLM-induced rats; alone or in combination, vs PO plus IV vehicles; data not shown
Experimental: (§6) The five lung lobes were collected and weighed. On Day 17, the right accessory lobe was retained and desiccated to obtain dry weight. The remaining right lung lobes were inflated and fixed in 10% neutral buffered formalin and embedded in paraffin for histological analysis. An approximately 50 mg piece of the left lung lobe was snap frozen and stored at −80° C. for potential RNA analysis. The remainder of the lobe was also snap frozen until analyzed for collagen content.
(§7) Sections for histology were stained using picrosirius red and were scored in a blinded fashion (1 score for each of the 3-4 lobes) by a veterinary pathologist using a modified Ashcroft score (Hubner et al., 2008). Hydroxyproline content was determined in the left lung lobe using a mass spectrometry method.
(§8) Slides were read by a veterinary pathologist and each of the 3 lobes evaluated was assigned 4 score types [Ashcroft for fibrosis (scores range from 0 to 8), perivascular/peribronchiolar inflammatory cell infiltrate (scores range from 0 to 5), interstitial/alveolar inflammatory cell infiltrate (scores range from 0 to 5), type II pneumocyte hyperplasia (scores range from 0 to 5)].

[5] = system: bleomycin-induced lung fibrosis; test: Survival, BLM-induced lung fibrosis mouse model (Example 1, Table E2); type: in vivo, mouse (male C57Bl/6J); details: for Survival (number of animals surviving to study day): Ninte. 60 mg/kg PO, BLM mice, 12 at start
Experimental: as §4, §5
The study commenced with 7 animals in the non-diseased control group and 12 animals in the BLM-induced groups. Survival is show in Table E2 below.

[6] = system: bleomycin-induced lung fibrosis; test: Histological fibrosis (modified Ashcroft) score, BLM rat model (Example 2); type: in vivo, rat (male Sprague Dawley); details: BLM-induced rats
Experimental: as §6, with “weighed.” for “weighed. On Day 17, the right accessory lobe was retained and desiccated to obtain dry weight.”, “The” for “The remaining”
as §7, with “4” for “3-4”
as §8, with “4” for “3”, “scores” for “score types”
Having noted the high variability in mean Ashcroft Index Scores within groups and also in lung pathology within each individual due to the focal nature of the model, we analyzed Ashcroft scores from all fields scored (4 per animal), which increased the number of observations to 24-32 in BLM-induced groups.

[7] = Body weight, BLM mouse model (Example 1); type: in vivo, mouse (male C57Bl/6J); details: BLM-induced mice; daily PO from Day 0: dexamethasone 0.25 mg/kg, Nintedanib 60 mg/kg
Experimental: as §4, §5

[8] = Day 8 (prior to any treatments), Ninte. PO + Vehicle IV group

## COC(=O)c1ccc2c(c1)NC(=O)/C2=C(\Nc1ccc(N(C)C(=O)CN2CCN(C)CC2)cc1)c1ccccc1 [Nintedanib, nintedanib]
[1]
  Body weight curves vs respective controls: None of the groups treated with Nintedanib, Pirfenidone or Test Article alone or in combination had body weight curves that significantly differed
[2]; BLM-induced rats, Day 15 and Day 21, Nintedanib, Pirfenidone or Test Article (HRS^FC1)
  BLM-induced alterations in respiratory parameters: did not significantly impact
[2]; [8]
  Expiratory Time: 0.151 s
  Inspiratory Time: 0.115 s
  Peak Expiratory Flow: 18.4
  Peak Inspiratory Flow: 17.2
  Tidal Volume: 1.19
  Respiratory Rate: 249.0
  Respiratory Minute Volume: 304.5
[2]; Day 15, Ninte. PO + Vehicle IV
  Expiratory Time: 0.205 s
  Inspiratory Time: 0.122 s
  Peak Expiratory Flow: 16.5
  Peak Inspiratory Flow: 19.0
  Tidal Volume: 1.35
  Respiratory Rate: 223.4
  Respiratory Minute Volume: 309.5
[2]; Day 21, Ninte. PO + Vehicle IV
  Expiratory Time: 0.231 s
  Inspiratory Time: 0.127 s
  Peak Expiratory Flow: 13.9
  Peak Inspiratory Flow: 18.1
  Tidal Volume: 1.44
  Respiratory Rate: 203.7
  Respiratory Minute Volume: 286.0
[3]
  Live cells counted in BAL fluid at termination: did not significantly affect
[4]
  Interstitial inflammatory cell infiltrate (as printed in the Ashcroft score paragraph): no significant effect
[5]; BLM-induced mice to Day 21, daily PO from Day 0: dexamethasone 0.25 mg/kg, Nintedanib 60 mg/kg
  Survival rate: 92%
[5]; Day 11
  Survival (number of animals surviving to study day): 12
[5]; Day 12
  Survival (number of animals surviving to study day): 12
[5]; Day 13
  Survival (number of animals surviving to study day): 12
[5]; Day 14
  Survival (number of animals surviving to study day): 12
[5]; Day 15
  Survival (number of animals surviving to study day): 12
[5]; Day 16
  Survival (number of animals surviving to study day): 12
[5]; Day 17
  Survival (number of animals surviving to study day): 12
[5]; Day 18
  Survival (number of animals surviving to study day): 12
[5]; Day 19
  Survival (number of animals surviving to study day): 12
[5]; Day 20
  Survival (number of animals surviving to study day): 12
[5]; Day 21
  Survival (number of animals surviving to study day): 11
[6]; Day 22, Nintedanib PO, Test Article = HRS^FC1 1 mg/kg IV on Days 2, 9 and 16, not significant
  Decrease of group mean Ashcroft score vs respective vehicle: 5%
[6]; Day 22, Nintedanib PO, Test Article = HRS^FC1 IV
  Group mean Ashcroft score, significance vs respective vehicle: did not meet statistical criteria
[6]; Nintedanib (50 mg/kg/dose) starting on Day 9, as printed in Summary
  Overall effects in this experiment: no significant effects
[7]
  Body weight, of initial body weights: around 90%
